Measurements as given in US8993574B2, “Pyrrole antifungal agents” (F2G Ltd, priority 2008, dated 2015).
In brackets after ≈: the same amount, converted by molar mass.

What was measured:
Type in all cases: cell-based
[1] = tested on: Aspergillus fumigatus AF293; assay: MIC, YAG medium; conditions: 24 h at 35° C, MIC banded into grades; for MIC: Aspergillus fumigatus, read-out: MIC grade, A. fumigatus
Procedure, shortened: (§1)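 Broth microdilution in YAG medium tests compound over 50-0.05 mg/L against spores at 1−2×10^4 cfu/mL. After 24 h incubation at 35° C, optical density at 485 nm gives growth, and the MIC is the lowest concentration reducing it by more than 70% relative to untreated control.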

[2] = tested on: Aspergillus terreus AT49; assay: MIC, YAG medium; conditions: 24 h at 35° C, MIC banded into grades; for MIC: Aspergillus terreus, read-out: MIC grade, A. terreus 49
Procedure, shortened: as §1

[3] = tested on: Aspergillus niger; assay: MIC, YAG medium; conditions: 24 h at 35° C, MIC banded into grades; for MIC: Aspergillus niger, read-out: MIC grade, A. niger
Procedure, shortened: as §1

[4] = tested on: Aspergillus flavus; assay: MIC, YAG medium; conditions: 24 h at 35° C, MIC banded into grades; for MIC: Aspergillus flavus, 24 h, read-out: MIC grade, A. flavus
Procedure, shortened: as §1

[5] = tested on: Aspergillus terreus AT4; assay: MIC, YAG medium; conditions: 24 h at 35° C, MIC banded into grades; for MIC: Aspergillus terreus, read-out: MIC grade, A. terreus
Procedure, shortened: as §1

[6] = tested on: Aspergillus fumigatus AF210; assay: MIC, YAG medium; conditions: 24 h at 35° C, MIC banded into grades; for MIC: Aspergillus fumigatus, read-out: MIC grade, A. fumigatus 210
Procedure, shortened: as §1

[7] = tested on: Candida albicans; assay: MIC, RPMI medium; conditions: 24-48 h at 35° C., >80% growth inhibition, banded into grades; for MIC: Candida albicans
Procedure, shortened: (§2)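 Fungi are tested in RPMI buffered with 0.135 M MOPS (pH 7.0) plus 2% glucose, inoculum 1−2×10^4 cfu/mL, against doubling compound dilutions spanning 50-0.05 mg/L. After 24-48 h at 35° C, the MIC is the lowest concentration suppressing growth by >80% against drug-free control.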

[8] = tested on: Candida parapsilosis; assay: MIC, RPMI medium; conditions: 24-48 h at 35° C., >80% growth inhibition, banded into grades; for MIC: Lodderomyces parapsilosis
Procedure, shortened: as §2

[9] = tested on: Aspergillus fumigatus AF293; assay: MIC, RPMI medium; conditions: for MIC grade, A. fumigatus: MIC banded into grades; for MIC: Aspergillus fumigatus, AF293, MIC banded into grades, read-out: MIC grade, A. fumigatus
Procedure, shortened: as §2

[10] = tested on: Aspergillus terreus AT49; assay: MIC, RPMI medium; conditions: for MIC grade, A. terreus 49: MIC banded into grades; for MIC: Aspergillus terreus, AT49, MIC banded into grades, read-out: MIC grade, A. terreus 49
Procedure, shortened: as §2

[11] = tested on: Aspergillus niger; assay: MIC, RPMI medium; conditions: MIC banded into grades; for MIC: Aspergillus niger, read-out: MIC grade, A. niger
Procedure, shortened: as §2

[12] = tested on: Candida krusei; assay: MIC, RPMI medium; conditions: 24-48 h at 35° C., >80% growth inhibition, banded into grades; for MIC: Pichia kudriavzevii
Procedure, shortened: as §2

[13] = tested on: Aspergillus flavus; assay: MIC, RPMI medium; conditions: MIC banded into grades; for MIC: Aspergillus flavus, read-out: MIC grade, A. flavus
Procedure, shortened: as §2

[14] = tested on: Candida glabrata; assay: MIC, RPMI medium; conditions: 24-48 h at 35° C., >80% growth inhibition, banded into grades; for MIC: Nakaseomyces glabratus
Procedure, shortened: as §2

[15] = tested on: Aspergillus terreus AT4; assay: MIC, RPMI medium; conditions: for MIC grade, A. terreus: MIC banded into grades; for MIC: Aspergillus terreus, AT4, MIC banded into grades, read-out: MIC grade, A. terreus
Procedure, shortened: as §2

[16] = tested on: Aspergillus fumigatus AF210; assay: MIC, RPMI medium; conditions: for MIC grade, A. fumigatus 210: MIC banded into grades; for MIC: Aspergillus fumigatus, AF210, MIC banded into grades, read-out: MIC grade, A. fumigatus 210
Procedure, shortened: as §2

[17] = tested on: Candida tropicalis; assay: MIC, RPMI medium; conditions: 24-48 h at 35° C., >80% growth inhibition, banded into grades; for MIC: Candida tropicalis
Procedure, shortened: as §2

Compound | MIC grade, A. fumigatus [1] | MIC grade, A. terreus 49 [2] | MIC grade, A. niger [3] | MIC [1] | MIC [2] | MIC [3] | MIC [4] | MIC [5] | MIC [6] | MIC [7] | MIC [8] | MIC [9] | MIC [10] | MIC [11] | MIC [12] | MIC [13] | MIC [14] | MIC [15] | MIC [16] | MIC [17] | further results
COCCn1c(C)cc(-c2ccccc2)c1C(=O)C(=O)Nc1ccc(N2CCN(c3ccc(CN4CCOCC4)cn3)CC2)cc1 [Example 103, 2-[1-(2-Methoxy-ethyl)-5-methyl-3-pheny-1H-pyrrol-2-yl]-N-{4-[4-(5-morpholin-4-ylmethyl-pyridin-2-yl)-piperazin-1-yl]-phenyl}-2-oxo-acetamide] | 3 (A grade of 3 represents an MIC of less than 1 mg/L) | 2 (A grade of 2 represents an MIC of from 1 to 10 mg/L) | 1 (a grade of 1 represents an MIC of greater than 10 mg/L) | – | – | – | – | – | – | – | – | – | – | – | – | – | – | – | – | – | MIC grade, A. flavus [4]: 1 (a grade of 1 represents an MIC of greater than 10 mg/L); MIC grade, A. terreus [5]: 2 (A grade of 2 represents an MIC of from 1 to 10 mg/L); MIC grade, A. fumigatus 210 [6]: 3 (A grade of 3 represents an MIC of less than 1 mg/L); Candida MIC, C. albicans [7]: 3 (A grade of 3 represents an MIC of less than 1 mg/L); Candida MIC, C. parapsilosis [8]: 3 (A grade of 3 represents an MIC of less than 1 mg/L); MIC grade, A. fumigatus [9]: 2 (A grade of 2 represents an MIC of from 1 to 10 mg/L); MIC grade, A. terreus 49 [10]: 2 (A grade of 2 represents an MIC of from 1 to 10 mg/L); MIC grade, A. niger [11]: 3 (A grade of 3 represents an MIC of less than 1 mg/L); Candida MIC, C. krusei [12]: 3 (A grade of 3 represents an MIC of less than 1 mg/L); MIC grade, A. flavus [13]: 1 (a grade of 1 represents an MIC of greater than 10 mg/L); Candida MIC, C. glabrata [14]: 3 (A grade of 3 represents an MIC of less than 1 mg/L); MIC grade, A. terreus [15]: 2 (A grade of 2 represents an MIC of from 1 to 10 mg/L); MIC grade, A. fumigatus 210 [16]: 2 (A grade of 2 represents an MIC of from 1 to 10 mg/L); Candida MIC, C. tropicalis [17]: 3 (A grade of 3 represents an MIC of less than 1 mg/L)
COCCn1ccc(C2CCC2)c1C(=O)C(=O)Nc1ccc(N2CCN(c3cc(C)cc(C)n3)CC2)cc1 [Example 104, 2-[3-Cyclobutyl-1-(2-methoxy-ethyl)-1H-pyrrol-2-yl]-N-{4-[4-(4,6-dimethyl-pyridin-2-yl)-piperizin-1-yl]-phenyl}-2-oxo-acetamide] | 2 (A grade of 2 represents an MIC of from 1 to 10 mg/L) | 2 (A grade of 2 represents an MIC of from 1 to 10 mg/L) | 1 (a grade of 1 represents an MIC of greater than 10 mg/L) | – | – | – | – | – | – | – | – | – | – | – | – | – | – | – | – | – | MIC grade, A. flavus [4]: 1 (a grade of 1 represents an MIC of greater than 10 mg/L); MIC grade, A. terreus [5]: 2 (A grade of 2 represents an MIC of from 1 to 10 mg/L); MIC grade, A. fumigatus 210 [6]: 2 (A grade of 2 represents an MIC of from 1 to 10 mg/L); Candida MIC, C. albicans [7]: 2 (A grade of 2 represents an MIC of from 1 to 10 mg/L); Candida MIC, C. parapsilosis [8]: 3 (A grade of 3 represents an MIC of less than 1 mg/L); MIC grade, A. fumigatus [9]: 1 (a grade of 1 represents an MIC of greater than 10 mg/L); MIC grade, A. terreus 49 [10]: 1 (a grade of 1 represents an MIC of greater than 10 mg/L); MIC grade, A. niger [11]: 1 (a grade of 1 represents an MIC of greater than 10 mg/L); Candida MIC, C. krusei [12]: 2 (A grade of 2 represents an MIC of from 1 to 10 mg/L); MIC grade, A. flavus [13]: 1 (a grade of 1 represents an MIC of greater than 10 mg/L); Candida MIC, C. glabrata [14]: 3 (A grade of 3 represents an MIC of less than 1 mg/L); MIC grade, A. terreus [15]: 1 (a grade of 1 represents an MIC of greater than 10 mg/L); MIC grade, A. fumigatus 210 [16]: 1 (a grade of 1 represents an MIC of greater than 10 mg/L); Candida MIC, C. tropicalis [17]: 3 (A grade of 3 represents an MIC of less than 1 mg/L)
C=C(C)CN1CCN(c2ccc(NC(=O)C(=O)c3c(-c4ccccc4)cc(C)n3CCOC)c(F)c2)CC1 [Example 109, N-{2-Fluoro-4-[4-(2-methyl-allyl)-piperazin-1-yl]-phenyl}-2-[1-(2-methoxy-ethyl)-5-methyl-3-phenyl-1H-pyrrol-2-yl]-2-oxo-acetamide] | – | – | – | < 1 µg/mL | < 1 µg/mL | < 1 µg/mL | < 1 µg/mL | < 1 µg/mL | < 1 µg/mL | < 1 µg/mL | < 1 µg/mL | < 1 µg/mL | < 1 µg/mL | < 1 µg/mL | < 1 µg/mL | < 1 µg/mL | < 1 µg/mL | < 1 µg/mL | < 1 µg/mL | 1 to 10 µg/mL (≈ 1.93 to 19.3 µM) | –
COCCn1c(C)cc(-c2ccccc2)c1C(=O)C(=O)Nc1ccc(N2CCN(CC(C)(C)C)CC2)cc1F [Example 113, N-{4-[4-(2,2-Dimethyl-propyl)-piperazin-1-yl]-2-fluoro-phenyl}-2-[1-(2-methoxy-ethyl)-5-methyl-3-phenyl-1H-pyrrol-2-yl]-2-oxo-acetamide] | – | – | – | < 1 µg/mL | < 1 µg/mL | < 1 µg/mL | < 1 µg/mL | < 1 µg/mL | < 1 µg/mL | < 1 µg/mL | < 1 µg/mL | 1 to 10 µg/mL (≈ 1.87 to 18.7 µM) | 1 to 10 µg/mL (≈ 1.87 to 18.7 µM) | < 1 µg/mL | < 1 µg/mL | 1 to 10 µg/mL (≈ 1.87 to 18.7 µM) | < 1 µg/mL | < 1 µg/mL | < 1 µg/mL | < 1 µg/mL | –
COCCn1c(C)cc(-c2ccccc2)c1C(=O)C(=O)Nc1ccc(N2CCCCC2)cc1F [Example 114, N-(2-Fluoro-4-piperidin-1-yl-phenyl)-2-[1-(2-methoxy-ethyl)-5-methyl-3-phenyl-1H-pyrrol-2-yl]-2-oxo-acetamide] | – | – | – | < 1 µg/mL | < 1 µg/mL | < 1 µg/mL | < 1 µg/mL | < 1 µg/mL | < 1 µg/mL | < 1 µg/mL | < 1 µg/mL | 1 to 10 µg/mL (≈ 2.16 to 21.6 µM) | 1 to 10 µg/mL (≈ 2.16 to 21.6 µM) | < 1 µg/mL | < 1 µg/mL | 1 to 10 µg/mL (≈ 2.16 to 21.6 µM) | < 1 µg/mL | 1 to 10 µg/mL (≈ 2.16 to 21.6 µM) | 1 to 10 µg/mL (≈ 2.16 to 21.6 µM) | < 1 µg/mL | –
